Measurements from US20240287553A1, “Methods of Production of Double Unsaturated Pheromones Using Metabolic Pathways” (ISCA Technologies, Inc., priority 2022, published 2024).
“Also recorded” adds a separate entry of the source.

Assays:
[1] = tested on: antennae of male S. exigua; assay: GC-EAD electrophysiology of yeast-produced pheromone, male Spodoptera exigua antennae; settings: extracts of yeast cell pellet and medium
Method: (§1) Insect rearing and tissue collection. The E. cautella individuals were reared on an artificial diet at 25±2.0° C. under an L16:D8 photoperiod as previously described in the field. Freshly emerged female adults were collected daily before the scotophase and considered to be 0 d old. The female pupae were collected separately, and the newly emerged adults were maintained in a vial under the same conditions. Laboratory cultures of S. exigua and P. interpunctella were reared at 23±1° C. under a 17:7 L:D photoperiod and 60% relative humidity and fed on wheat-germs based and beans based artificial diet, respectively. The male and female pupae were kept separately. Adults were fed with a 10% honey solution, and two- to three-day-old unmated males were used for the electrophysiological experiments.
Electrophysiology of ZETA yeast produced pheromone. The antennal electrophysiological activity of the yeast-derived pheromone was tested by gas chromatography with electroantennographic detection (GC-EAD). An Agilent 7890 gas chromatograph equipped with a flame ionization detector (FID), an HP-INNOWax column (30 m×0.25 mm i.d., and 0.25 μm film thickness; J&W Scientific, USA) was used. […]

[2] = tested on: antennae of male P. interpunctella; assay: GC-EAD electrophysiology of yeast-produced pheromone, male Plodia interpunctella antennae; settings: extracts of yeast cell pellet and medium
Method: as §1
Electrophysiology of ZETA yeast produced pheromone. The antennal electrophysiological activity of the yeast-derived pheromone was tested by gas chromatography with electroantennographic detection (GC-EAD). An Agilent 7890 gas chromatograph equipped with a flame ionization detector (FID), an HP-INNOWax column (30 m×0.25 mm i.d., and 0.25 μm film thickness; J&W Scientific, USA) was used. Antennae of male S. exigua and P. interpunctella with both tips cut-off and associated with the head were mounted on a PRG-2 EAG (10× gain) probe (Syntech, Kirchzarten, Germany) using conductive gel (Blågel, Cefar, Malmö, Sweden). The antennal preparation was put in a flow of charcoal-filtered and humidified air that passed through the column outlet. Hydrogen was used as the carrier gas with a constant flow of 1.8 mL/min, and the GC effluent was directed to the FID and EAD by a 1:1 division. The GC inlet was set at 250° C., the transfer line was set at 255° C., and the detector was set at 280° C. The GC oven was programmed from 80° C. for 1 min, then increased to 210° C. at a rate of 10° C./min and held for 10 min. Data were collected with the software GC-EAD Pro Version 4.1 (Syntech).

Structure (SMILES)	antennal response (EAD) [1]	antennal response (EAD) [2]
CCCC/C=C\CCCCCCCCOC(C)=O [Z9-14:OAc, (Z)-9-tetradecenyl acetate]	responded strongly	responded strongly
C/C=C/C/C=C\CCCCCCCCOC(C)=O [ZETA, (Z,E)-9,12-tetradecadienyl acetate]	distinct antennal responses; also recorded: responded strongly; also recorded: typical antennal responses	distinct antennal responses; also recorded: responded strongly; also recorded: typical antennal responses
CCCCCCCCCCCCCCOC(C)=O [tetradecanyl acetate]		minor response
